{
  "source": "patent US10945989B2",
  "about": "“Perinatal treatment with a flavonoid agonist of the TrkB receptor for BDNF rescues neurogenesis and behavior in the Ts65Dn mouse model of DS” (ALMA MATER STUDIORUM—Universita' di Bologna, priority 2017, dated 2021)",
  "key": {"[1]": {"tested_on": "neural precursor cells of the DG", "assay": "BrdU-positive cells in the dentate gyrus of P15 mice", "assay_type": "in vivo, mouse", "details": "for number of BrdU-positive cells in the DG: Ts65Dn pups", "experimental": "In a pilot study we tested the effects of different doses of 7,8-DHF on the proliferation rate in the SGZ of Ts65Dn mice. Mice received a daily subcutaneous injection of 7,8-DHF (2.5, 5.0, or 10.0 mg/kg in PBS with 1-2% DMSO) from postnatal day 3 (P3) to P15. […] Therefore, this study (Experiment 1 and Experiment 2) was carried out using a 5.0 mg/kg dose.\nEuploid and Ts65Dn mice received a daily subcutaneous injection (at 9-10 am) of 7,8-DHF (5.0 mg/kg in vehicle: PBS with 1% DMSO) or vehicle from postnatal day 3 (P3) to postnatal day 15. This timing was chosen because it corresponds to that previously used to test the effects of fluoxetine and other pharmacotherapies in the neonate Ts65Dn mouse (Bianchi et al., 2010b; Giacomini et al., 2015; Stagni et al., 2016). Mice that received 7,8-DHF will be called “treated mice” (treated euploid mice: n=25; treated Ts65Dn mice: n=15). Mice that received the vehicle will be called “untreated mice” (untreated euploid mice: n=35; untreated Ts65Dn mice: n=21). […] The brains were excised and cut along the midline. The left hemisphere of a group of mice was fixed by immersion in PFA 4% and frozen, and the left hemisphere of another group of mice was used for Golgi staining. The right hemispheres of all mice was kept at −80° C. and used for western blotting.\nOne out of six free-floating sections (n=15-18 sections) from the hippocampal formation of P15 mice was incubated with rat anti-BrdU antibody.\nBrdU-positive cells in the DG of P15 mice were detected using a fluorescence microscope (Eclipse; objective: ×40, 0.75 NA; final magnification: ×400). Quantification of BrdU-labeled nuclei was conducted in every 6th section using a modified unbiased stereology protocol that has previously been reported as successfully quantifying BrdU labeling (Malberg et al., 2000; Kempermann and Gage, 2002; Tozuka et al., 2005). All BrdU labeled cells located in the granule cell and subgranular layers were counted in their entire z axis (1 μm steps) in each section. To avoid oversampling errors, nuclei intersecting the uppermost focal plane were excluded. The total number of BrdU labeled cells per animal was determined and multiplied by six to obtain the total estimated number of cells per DG."}, "[2]": {"assay": "Prenatal treatment: body and brain weight of P2 mice", "assay_type": "in vivo, mouse", "details": "P2 Ts65Dn mice, embryonic treatment", "experimental": "Ts65Dn females (n=4) were bred C57BL/6JEi×C3SnHeSnJ (B6EiC3) F1 males (n=4). Conception was determined by examining the vaginal plug. Pregnant females received a daily subcutaneous injection of either 7,8-DHF (Sigma-Aldrich) in PBS with 2% DMSO (dose: 5 mg/kg) or vehicle from the embryonic (E) day 10 (E10) to the day of delivery (E20/21). […] On postnatal day 2 (P2) the progeny of 7,8-DHF-treated and vehicle-treated females received an intraperitoneal injection (150 μg/g body weight) of BrdU (Sigma) in 0.9% NaCl solution and were killed after 2 h (on P2; 4-8 animals for each group). Vehicle-treated females and their progeny will be called hereafter untreated mice. The body weight of P2 mice was recorded prior to sacrifice. After sacrifice, brain was excised and weighed."}, "[3]": {"tested_on": "NPCs from the SVZ of Ts65Dn mice", "assay": "Proliferation of NPC cultures (Cell Titer-Glo)", "assay_type": "cell-based, mouse", "details": "96 h", "experimental": "Cells were isolated from the subventricular zone (SVZ) of the lateral ventricle and the subgranular zone (SGZ) of the hippocampal dentate gyrus (DG) of newborn (P1-P2) euploid and Ts65Dn mice. Briefly, brains were removed, the SVZ and SGZ regions were isolated and individually collected in ice-cold PIPES buffer pH 7.4. After centrifugation, tissue was digested for 10 min at 37° C. using Trypsin/EDTA 0.25% (Life Technologies) aided by gentle mechanical dissociation. Cell suspension from each individual mouse was plated onto 25 cm^2 cell-culture flask (Thermo Fisher Scientific) and cultured as floating neurospheres in medium containing basic fibroblast growth factor (bFGF, 10 ng/ml; Peprotech) and epidermal growth factor (EGF, 20 ng/ml; Peprotech) using an established protocol (Meneghini et al., 2014). […] Cell proliferation was quantified as relative luminescence units (RLU) values using Cell Titer-Glo viability assay reagent (Promega) on aVictor^3-V plate reader (PerkinElmer). […] In each experiment, five fields/well (corresponding to about 150-200 cells/well) were counted with a 60× objective by a Leica DMIRB inverted fluorescence microscope. Immunoreactive cells were counted and their percentage over total viable cells was calculated. […]"}},
  "data": [
    {"smiles": "O=c1cc(-c2ccccc2)oc2c(O)c(O)ccc12", "note": "[7,8-DHF, 7,8-dihydroxyflavone]", "values": [
      {"measurement": "number of BrdU-positive cells in the DG", "setting": "[1]; 2.5 mg/kg P3-P15, vs vehicle", "result": "no effect"},
      {"measurement": "number of BrdU-positive cells in the DG", "setting": "[1]; 5.0 mg/kg P3-P15, vs vehicle", "result": "increased the number of BrdU-positive cells"},
      {"measurement": "number of BrdU-positive cells in the DG", "setting": "[1]; 10.0 mg/kg P3-P15, vs vehicle", "result": "increased the number of BrdU-positive cells"},
      {"measurement": "number of NPCs (BrdU-positive cells) in the DG", "setting": "[1]; euploid mice, 5.0 mg/kg P3-P15", "result": "no effect on the number of NPCs"},
      {"measurement": "optimum dose for proliferation rate in the SGZ", "setting": "[1]; pilot study, Ts65Dn mice, 2.5, 5.0 or 10.0 mg/kg s.c. P3-P15", "result": 5.0, "unit": "mg/kg"},
      {"measurement": "total number of BrdU-positive (proliferating) cells per DG", "setting": "[1]; treated Ts65Dn mice, 5.0 mg/kg P3-P15, mean±SE, untreated Ts65Dn 7166±337, untreated euploid 10,281±111", "result": "8963±449"},
      {"measurement": "body weight", "setting": "[2]", "result": "did not further reduce the body weight"},
      {"measurement": "proliferation rate of trisomic NPCs", "setting": "[3]; highest concentration 10.0 μM", "result": "reduced proliferation"},
      {"measurement": "proliferation rate of trisomic NPCs", "setting": "[3]; tested concentrations 0.3-10.0 μM, vs vehicle", "result": "none of the tested concentrations was able to increase the proliferation rate"}
    ]}
  ]
}
